Data taken from patent publication US9186335B2, “Hot melt TTS for administering rotigotine” (UCB PHARMA GMBH, priority 2002, dated 2015).

Experiment: Rotigotine purity/stability in the hot-melt adhesive matrix by gradient HPLC with UV detection
Format: physicochemical
Settings: short-term heating to temperatures up to at least 160° C.

- stability under heating: remains stable
Structure (SMILES): CCCN(CCc1cccs1)[C@H]1CCc2c(O)cccc2C1 [Rotigotine, (−)-5,6,7,8-tetrahydro-6-[propyl[2-(2-thienyl)ethyl)amino]-1-napththol]
